“Also recorded” adds a separate entry of the source.
Key:
Assay type in all cases: cell-based
[1] = Toxicity on ATH8 target cells (% toxicity, dye exclusion); conditions: human, ath8 cells, % Toxicity
Description: (§1) HIV Cytopathic Effect Inhibition Assay.
(§2) The HIV cytopathic effect inhibition assay was performed as previously described. […] On day 8 in culture, the viable cells were counted by using the dye exclusion method. All compounds, including inactives, were evaluated a minimum of two times in separate experiments. Data reported in Table II are from representative tests. The % protection against the virus was determined by the following formula: 100 times [(the number of viable cells exposed to HIV-1 and cultured in the presence of the compound minus the number of viable cells exposed to HIV-1 and cultured in the absence of compound) divided by (the number of viable cells cultured alone minus the number of viable cells exposed to HIV-1 and cultured in the absence of the compound)]. The % toxicity of a compound on the target cells was determined by the following formula: 100 times [1 minus (the number of total viable cells cultured in the presence of the compound divided by the number of total viable cells cultured alone)]. Calculated percentages equal to or less than zero are expressed as 0%.

CD4^+ ATH8 cells = experiment: as above; conditions: human
Description: as §1, §2

[2] = system: HIV-1/IIIB (CD4^+ ATH8 cells); experiment: HIV cytopathic effect inhibition assay in ATH8 cells (% protection); conditions: for inhibition at 10 µM: Human immunodeficiency virus 1, IIIB, ATH-8, 192 h

Compound: CNc1ncnc2c1ncn2[C@@H]1O[C@H](CO)C[C@@H]1F [Compound 1f, N^6 -Methyl-9-(2'3'-dideoxy-2'-fluoro-β-D-arabinofuranosyl)adenine]
- cytotoxicity at 192 h, 20 µM [1]: 0%
- % Toxicity (CD4^+ ATH8 cells; 11520 min): 11%
- % Toxicity (CD4^+ ATH8 cells; ath8 cells, 192 h, 5 µM): 3%
- % Toxicity (CD4^+ ATH8 cells; ath8 cells, 192 h, 10 µM): 7%
- % Protection ([2]; 10 μM, with dCF (2 μM), 11520 min): < 10%
- anti-HIV activity in the presence of dCF (in words) ([2]; ATH8 cells, dCF added): protection was either abolished or greatly decreased; also recorded: can have activity abolished
- anti-HIV activity (in words) ([2]; ATH8 cells, no additive): that activity was reduced relative to 1a; also recorded: reproducible, albeit unspectacular, activity; also recorded: only moderate anti-HIV activity
- inhibition at 10 µM ([2]; 10 μM, no additive (Table IV experiment)): 13%
- inhibition at 10 µM ([2]; 10 μM, with added ADA (0.7 U/ml)): 90%
